Results as given in ChEMBL document CHEMBL4033751, “Synthesis and biological evaluation of caffeic acid derivatives as potent inhibitors of α-MSH-stimulated melanogenesis” (Bioorg Med Chem Lett, 2017).

What was measured:
B16 = experiment: Inhibition of alpha-MSH-stimulated melanogenesis in mouse B16 cells assessed as reduction in melanin formation; format: functional, cell-based
[1] = Cytotoxicity in mouse B16 cells assessed as cell viability at 5 uM by MTT assay; format: cell-based; conditions: read-out: Activity
[2] = Cytotoxicity in mouse B16 cells assessed as cell viability at 2.5 uM by MTT assay; format: cell-based; conditions: read-out: Activity
[3] = Cytotoxicity in mouse B16 cells assessed as cell viability at 40 uM by MTT assay; format: cell-based; conditions: read-out: Activity
[4] = Cytotoxicity in mouse B16 cells assessed as cell viability at 20 uM by MTT assay; format: cell-based; conditions: read-out: Activity
[5] = Cytotoxicity in mouse B16 cells assessed as cell viability at 10 uM by MTT assay; format: cell-based; conditions: read-out: Activity

SMILES	IC50 (B16) [µM]	viability at 5 µM [1] [%]	viability at 2.5 µM [2] [%]	viability at 40 µM [3] [%]	viability at 20 µM [4] [%]	viability at 10 µM [5] [%]
COc1ccccc1CNC(=O)/C=C/c1ccc(O)c(O)c1	7	–	–	35 to 46	20	–
COC(=O)[C@]1(O)C[C@@H](O)[C@@H](O)[C@H](OC(=O)/C=C/c2ccc(O)c(O)c2)C1 [CHLOROGENIC ACID METHYL ESTER]	> 40	–	–	–	–	–
O=C(CCc1ccc(O)c(O)c1)O[C@@H]1C[C@](O)(C(=O)O)C[C@@H](O)[C@H]1O	> 40	–	–	–	–	–
O=C(/C=C/c1ccc(O)c(O)c1)NCc1ccccc1	8	–	–	–	–	23
O=c1cc(CO)occ1O [KOJIC ACID]	57	–	–	–	–	–
O=C(/C=C/c1ccc(O)c(O)c1)N1CCCCC1	24	–	–	0	–	–
O=C(/C=C/c1ccc(O)c(O)c1)OC1CCCCC1	7	–	–	–	–	30
O=C(/C=C/c1ccc(O)c(O)c1)NCc1ccccc1Cl	6.5	–	–	0	–	–
OC[C@H]1O[C@@H](Oc2ccc(O)cc2)[C@H](O)[C@@H](O)[C@@H]1O [ARBUTIN]	400	–	–	–	–	–
O=C(/C=C/c1ccc(O)c(O)c1)N1CCNCC1	> 40	–	–	–	31	–
NS(=O)(=O)c1ccc(CNC(=O)/C=C/c2ccc(O)c(O)c2)cc1	> 40	–	–	0	–	–
O=C(/C=C/c1ccc(O)c(O)c1)Nc1ccccc1	7.6	–	–	–	–	21
Cc1ccccc1CNC(=O)/C=C/c1ccc(O)c(O)c1	20	–	–	–	33 to 49	25
O=C(/C=C/c1ccc(O)c(O)c1)NC1CCCC1	30	–	–	0	–	–

The next molecules have a lower IC50 (B16) than those just listed; values first:

IC50 (B16) [µM]	SMILES	viability at 5 µM [1] [%]	viability at 2.5 µM [2] [%]	viability at 40 µM [3] [%]	viability at 20 µM [4] [%]	viability at 10 µM [5] [%]
6.2	COc1ccc(CNC(=O)/C=C/c2ccc(O)c(O)c2)cc1	–	–	37 to 54	20	–
6	O=C(/C=C/c1ccc(O)c(O)c1)NCc1cccc(Cl)c1	–	–	–	59 to 62	22
5.8	CC(C)(C)OC(=O)N1CCN(C(=O)/C=C/c2ccc(O)c(O)c2)CC1	–	–	–	31	–
3.7	Cc1ccc(CNC(=O)/C=C/c2ccc(O)c(O)c2)cc1	–	–	–	22 to 30	20
3.4	CC(C)c1ccc(NC(=O)/C=C/c2ccc(O)c(O)c2)cc1	15	–	–	–	82
3	Cc1cccc(CNC(=O)/C=C/c2ccc(O)c(O)c2)c1	–	–	–	45	20
2.8	O=C(/C=C/c1ccc(O)c(O)c1)NC1CCCCC1	–	–	–	–	23
1.9	O=C(/C=C/c1ccc(O)c(O)c1)Nc1cccc([N+](=O)[O-])c1	24 to 35	–	–	–	48
1.8	O=C(/C=C/c1ccc(O)c(O)c1)NCc1ccc(Cl)cc1	23	–	–	–	39 to 53
1.8	O=C(/C=C/c1ccc(O)c(O)c1)NCc1ccccc1C(F)(F)F	22 to 28	–	–	–	33 to 49
1.6	O=C(/C=C/c1ccc(O)c(O)c1)NCc1ccc(C(F)(F)F)cc1	26	–	–	–	39 to 48
1.4	O=C(/C=C/c1ccc(O)c(O)c1)NCc1cccc(C(F)(F)F)c1	24	–	–	–	29 to 47
1.4	O=C(/C=C/c1ccc(O)c(O)c1)Nc1cccc(C(F)(F)F)c1	60 to 82	22 to 36	–	–	–
1.4	O=C(/C=C/c1ccc(O)c(O)c1)Nc1ccc([N+](=O)[O-])cc1	30 to 35	–	–	–	51 to 62
1.4	O=C(/C=C/c1ccc(O)c(O)c1)Nc1ccc(C(F)(F)F)cc1	56 to 58	–	–	–	77 to 90
1.2	CCCCc1ccc(NC(=O)/C=C/c2ccc(O)c(O)c2)cc1	68 to 96	33 to 49	–	–	–
1	Cc1n[nH]c(NC(=O)/C=C/c2ccc(O)c(O)c2)c1-c1ccc(Br)cc1	68 to 93	29 to 56	–	–	–
0.2	CC(=O)Oc1ccc(/C=C/C(=O)OC2CCCCC2)cc1OC(C)=O	–	24	–	–	–
